Patent publication US20240383915A1, “OXAZEPINE COMPOUNDS AND USES THEREOF IN THE TREATMENT OF CANCER” (Genentech, Inc., priority 2021, published 2024)

How the values were obtained:
PC-9 cells = test: PC9 proliferation assay; assay type: cell-based, human; conditions: Homo sapiens, PC-9, PC9; read-out: PC9 Prolif IC50 (G12V)
KRas(G12V) = KRas(G12V) (Homo sapiens (Human), UniProt P01116, G12V); test: KRas(G12V) GDP HTRF (BODIPY-GDP exchange TR-FRET); assay type: biochemical
SW480 cells = test: SW480 proliferation assay; assay type: cell-based; conditions: Homo sapiens, SW480, SW480; read-out: SW480 Prolif IC50 (G12V)
KRas = KRas (Homo sapiens (Human), UniProt P01116); test: KRas GDP HTRF (BODIPY-GDP exchange TR-FRET); assay type: biochemical
How it was run: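 Inhibition of SOS1-mediated exchange of BODIPY-GDP on KRAS G12D, started with 3 nM recombinant human SOS1 and 300 nM BODIPY-GDP and read after 60 min. TR-FRET excitation 337 nm, ratio 520/490 nm ×10,000. IC50 from 4-parameter Hill fit of normalized data.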

KRas(G12V), sequence (P01116-2 other isoform, or with tags, fused parts or gaps G12V): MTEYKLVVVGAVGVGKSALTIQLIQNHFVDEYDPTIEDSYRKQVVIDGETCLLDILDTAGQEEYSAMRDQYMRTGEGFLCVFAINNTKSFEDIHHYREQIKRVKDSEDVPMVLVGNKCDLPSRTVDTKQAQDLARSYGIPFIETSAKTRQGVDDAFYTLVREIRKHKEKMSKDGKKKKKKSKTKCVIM
KRas, sequence (P01116-2 other isoform, or with tags, fused parts or gaps): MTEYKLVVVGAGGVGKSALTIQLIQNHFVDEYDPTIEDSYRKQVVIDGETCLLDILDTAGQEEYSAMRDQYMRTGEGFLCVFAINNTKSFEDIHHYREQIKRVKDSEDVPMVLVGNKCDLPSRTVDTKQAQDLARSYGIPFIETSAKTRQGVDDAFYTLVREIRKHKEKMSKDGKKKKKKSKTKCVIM

| Structure (SMILES) | IC50 (PC-9 cells) [nM] | IC50 (KRas(G12V)) [nM] | IC50 (SW480 cells) [nM] | IC50 (KRas) [nM] |
| --- | --- | --- | --- | --- |
| Cc1cc(N)nc(-c2c(Cl)c3c4c(nc(N5CC6(COCCN6)C5)nc4c2F)N([C@H](C)c2cccnc2N)CCO3)c1C(F)(F)F (atropisomer, axis not shown) [Example 90, 6-((R)-4-((R)-1-(2-aminopyridin-3-yl)ethyl)-8-chloro-10-fluoro-2-(8-oxa-2,5-diazaspiro[3.5]nonan-2-yl)-5,6-dihydro-4H-[1,4]oxazepino[5,6,7-de]quinazolin-9-yl)-4-methyl-5-(trifluoromethyl)pyridin-2-amine] | 6400 | 0.22 | 390 | 0.99 |
| Cc1cc(N)nc(-c2c(Cl)c3c4c(nc(OC[C@@H]5C[C@@H](F)CN5C)nc4c2F)N([C@H](C)c2cccnc2N)CCO3)c1C(F)(F)F (atropisomer, axis not shown) [Example 106, 6-((R)-4-((R)-1-(2-aminopyridin-3-yl)ethyl)-8-chloro-10-fluoro-2-(((2S,4R)-4-fluoro-1-methylpyrrolidin-2-yl)methoxy)-5,6-dihydro-4H-[1,4]oxazepino[5,6,7-de]quinazolin-9-yl)-4-methyl-5-(trifluoromethyl)pyridin-2-amine] | 970 | 0.13 | 9.4 | 0.14 |
| Cc1cc(N)nc(-c2c(Cl)c3c4c(nc(OC[C@@H]5CCN5CC(F)F)nc4c2F)N([C@H](C)c2cccnc2N)CCO3)c1C(F)(F)F (atropisomer, axis not shown) [Example 109, 6-((R)-4-((R)-1-(2-aminopyridin-3-yl)ethyl)-8-chloro-2-(((S)-1-(2,2-difluoroethyl)azetidin-2-yl)methoxy)-10-fluoro-5,6-dihydro-4H-[1,4]oxazepino[5,6,7-de]quinazolin-9-yl)-4-methyl-5-(trifluoromethyl)pyridin-2-amine] | 13000 | 0.18 | 2.8 | 0.222 |
| Cc1cc(N)nc(-c2c(Cl)c3c4c(nc(OC[C@@H]5CC(F)(F)CN5C)nc4c2F)N([C@H](C)c2cccnc2N)CCO3)c1C(F)(F)F (atropisomer, axis not shown) [Example 112, 6-((R)-4-((R)-1-(2-aminopyridin-3-yl)ethyl)-8-chloro-2-(((S)-4,4-difluoro-1-methylpyrrolidin-2-yl)methoxy)-10-fluoro-5,6-dihydro-4H-[1,4]oxazepino[5,6,7-de]quinazolin-9-yl)-4-methyl-5-(trifluoromethyl)pyridin-2-amine] | 4300 | 0.2 | 1.8 | 0.32 |
| Cc1cc(N)nc(-c2c(Cl)c3c4c(nc(OC[C@@H]5CCCN5CC(F)F)nc4c2F)N([C@H](C)c2cccnc2N)CCO3)c1C(F)(F)F (atropisomer, axis not shown) [Example 115, 6-((R)-4-((R)-1-(2-aminopyridin-3-yl)ethyl)-8-chloro-2-(((S)-1-(2,2-difluoroethyl)pyrrolidin-2-yl)methoxy)-10-fluoro-5,6-dihydro-4H-[1,4]oxazepino[5,6,7-de]quinazolin-9-yl)-4-methyl-5-(trifluoromethyl)pyridin-2-amine] | 15000 | 0.47 | 16 | 0.9 |
| C=C1CN2CCC[C@@]2(COc2nc3c4c(c(Cl)c(-c5nc(N)cc(C)c5C(F)(F)F)c(F)c4n2)OCCN3[C@H](C)c2cccnc2N)C1 (atropisomer, axis not shown) [Example 116, 6-((R)-4-((R)-1-(2-aminopyridin-3-yl)ethyl)-8-chloro-10-fluoro-2-(((S)-2-methylenetetrahydro-1H-pyrrolizin-7a(5H)-yl)methoxy)-5,6-dihydro-4H-[1,4]oxazepino[5,6,7-de]quinazolin-9-yl)-4-methyl-5-(trifluoromethyl)pyridin-2-amine] | 1600 | 0.074 | 4.6 | 0.0519 |
| Cc1cc(N)nc(-c2c(Cl)c3c4c(nc(OC[C@@H]5CCCN5C5COC5)nc4c2F)N([C@H](C)c2cccnc2N)CCO3)c1C(F)(F)F (atropisomer, axis not shown) [Example 117, 6-((R)-4-((R)-1-(2-aminopyridin-3-yl)ethyl)-8-chloro-10-fluoro-2-(((S)-1-(oxetan-3-yl)pyrrolidin-2-yl)methoxy)-5,6-dihydro-4H-[1,4]oxazepino[5,6,7-de]quinazolin-9-yl)-4-methyl-5-(trifluoromethyl)pyridin-2-amine] | 6300 | 0.08 | 12 | 0.18 |

Further lines, results first:

| IC50 (PC-9 cells) [nM] | IC50 (KRas(G12V)) [nM] | IC50 (SW480 cells) [nM] | IC50 (KRas) [nM] | Structure (SMILES) |
| --- | --- | --- | --- | --- |
| 7200 | 0.12 | 11 | 0.224 | Cc1cc(N)nc(-c2c(Cl)c3c4c(nc(OC[C@]56CCN5CC(F)(F)C6)nc4c2F)N([C@H](C)c2cncnc2N)CCO3)c1C(F)(F)F (atropisomer, axis not shown) [Example 82b, 5-((R)-1-((R)-9-(6-amino-4-methyl-3-(trifluoromethyl)pyridin-2-yl)-8-chloro-2-(((R)-3,3-difluoro-1-azabicyclo[3.2.0]heptan-5-yl)methoxy)-10-fluoro-5,6-dihydro-4H-[1,4]oxazepino[5,6,7-de]quinazolin-4-yl)ethyl)pyrimidin-4-amine] |
| 5900 | 0.19 | 23 | 0.684 | Cc1cc(N)nc(-c2c(Cl)c3c4c(nc(OC[C@@H]5CC(F)(F)CN5C)nc4c2F)N([C@H](C)c2cncnc2N)CCO3)c1C(F)(F)F (atropisomer, axis not shown) [Example 83a, 5-((R)-1-((R)-9-(6-amino-4-methyl-3-(trifluoromethyl)pyridin-2-yl)-8-chloro-2-(((S)-4,4-difluoro-1-methylpyrrolidin-2-yl)methoxy)-10-fluoro-5,6-dihydro-4H-[1,4]oxazepino[5,6,7-de]quinazolin-4-yl)ethyl)pyrimidin-4-amine] |
| 12000 | 0.14 | 73 | 0.389 | Cc1cc(N)nc(-c2c(Cl)c3c4c(nc(OC[C@@H]5CCN5CC(F)F)nc4c2F)N([C@H](C)c2cncnc2N)CCO3)c1C(F)(F)F (atropisomer, axis not shown) [Example 84a, 5-((R)-1-((R)-9-(6-amino-4-methyl-3-(trifluoromethyl)pyridin-2-yl)-8-chloro-2-(((S)-1-(2,2-difluoroethyl)azetidin-2-yl)methoxy)-10-fluoro-5,6-dihydro-4H-[1,4]oxazepino[5,6,7-de]quinazolin-4-yl)ethyl)pyrimidin-4-amine] |
| 1800 | 0.07 | 37 | 0.0648 | Cc1cc(N)nc(-c2c(Cl)c3c4c(nc(OC[C@@H]5C[C@@H]6C[N@@]5CCO6)nc4c2F)N([C@H](C)c2cccnc2N)CCO3)c1C(F)(F)F (atropisomer, axis not shown) [Example 92a, 6-((R)-2-(((1R,5R,7S)-4-oxa-1-azabicyclo[3.2.1]octan-7-yl)methoxy)-4-((R)-1-(2-aminopyridin-3-yl)ethyl)-8-chloro-10-fluoro-5,6-dihydro-4H-[1,4]oxazepino[5,6,7-de]quinazolin-9-yl)-4-methyl-5-(trifluoromethyl)pyridin-2-amine] |
| 6000 | 0.31 | 700 | 1.89 | Cc1cc(N)nc(-c2c(Cl)c3c4c(nc(OC[C@H]5C[C@@H]6C[N@@]5CCO6)nc4c2F)N([C@H](C)c2cccnc2N)CCO3)c1C(F)(F)F (atropisomer, axis not shown) [Example 92b, 6-((R)-2-(((1R,5R,7R)-4-oxa-1-azabicyclo[3.2.1]octan-7-yl)methoxy)-4-((R)-1-(2-aminopyridin-3-yl)ethyl)-8-chloro-10-fluoro-5,6-dihydro-4H-[1,4]oxazepino[5,6,7-de]quinazolin-9-yl)-4-methyl-5-(trifluoromethyl)pyridin-2-amine] |
| 7400 | 0.36 | 1.8 | 0.85 | Cc1cc(N)nc(-c2c(Cl)c3c4c(nc(OC[C@@]56CCCN5C[C@]5(CC5(F)F)C6)nc4c2F)N([C@H](C)c2cccnc2N)CCO3)c1C(F)(F)F (atropisomer, axis not shown) [Example 111a, 6-((R)-4-((R)-1-(2-aminopyridin-3-yl)ethyl)-8-chloro-2-(((1R,7a′S)-2,2-difluorodihydro-1′H,3′H-spiro[cyclopropane-1,2′-pyrrolizin]-7a′(5′H)-yl)methoxy)-10-fluoro-5,6-dihydro-4H-[1,4]oxazepino[5,6,7-de]quinazolin-9-yl)-4-methyl-5-(trifluoromethyl)pyridin-2-amine] |
| 7000 | 0.24 | 3.2 | 0.39 | Cc1cc(N)nc(-c2c(Cl)c3c4c(nc(OC[C@@]56CCN5CC(F)(F)C6)nc4c2F)N([C@H](C)c2cccnc2N)CCO3)c1C(F)(F)F (atropisomer, axis not shown) [Example 114a, 6-((R)-4-((R)-1-(2-aminopyridin-3-yl)ethyl)-8-chloro-2-(((S)-3,3-difluoro-1-azabicyclo[3.2.0]heptan-5-yl)methoxy)-10-fluoro-5,6-dihydro-4H-[1,4]oxazepino[5,6,7-de]quinazolin-9-yl)-4-methyl-5-(trifluoromethyl)pyridin-2-amine] |
| 7600 | 0.22 | 3 | 0.46 | Cc1cc(N)nc(-c2c(Cl)c3c4c(nc(OC[C@]56CCN5CC(F)(F)C6)nc4c2F)N([C@H](C)c2cccnc2N)CCO3)c1C(F)(F)F (atropisomer, axis not shown) [Example 114b, 6-((R)-4-((R)-1-(2-aminopyridin-3-yl)ethyl)-8-chloro-2-(((R)-3,3-difluoro-1-azabicyclo[3.2.0]heptan-5-yl)methoxy)-10-fluoro-5,6-dihydro-4H-[1,4]oxazepino[5,6,7-de]quinazolin-9-yl)-4-methyl-5-(trifluoromethyl)pyridin-2-amine] |
